Source: PubChem BioAssay (NCI)
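Briefly, cells in 96-well plates were exposed to five compound concentrations for 48 h, and endpoints were estimated by linear interpolation. Here, GI50 denotes the concentration required for 50% inhibition of growth. The concentration for full growth arrest is given as TGI.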

Tests used:
Assay in all cases: NCI-60 cell line screen, 48 h
SK-MEL-28 melanoma = tested on: SK-MEL-28 melanoma
HS 578T breast = tested on: HS 578T breast
SK-MEL-2 melanoma = tested on: SK-MEL-2 melanoma
OVCAR-3 ovarian = tested on: OVCAR-3 ovarian
MOLT-4 leukemia = tested on: MOLT-4 leukemia
SF-268 CNS = tested on: SF-268 CNS
K-562 leukemia = tested on: K-562 leukemia
HCT-116 colon = tested on: HCT-116 colon
OVCAR-4 ovarian = tested on: OVCAR-4 ovarian
SN12C renal = tested on: SN12C renal
SF-295 CNS = tested on: SF-295 CNS
MALME-3M melanoma = tested on: MALME-3M melanoma
UO-31 renal = tested on: UO-31 renal
SNB-19 CNS = tested on: SNB-19 CNS
A549 NSCLC = tested on: A549 NSCLC
OVCAR-5 ovarian = tested on: OVCAR-5 ovarian
TK-10 renal = tested on: TK-10 renal
HL-60(TB) leukemia = tested on: HL-60(TB) leukemia
NCI-H23 lung = tested on: NCI-H23 lung
UACC-62 melanoma = tested on: UACC-62 melanoma
MDA-MB-231 breast = tested on: MDA-MB-231 breast
SW-620 colon = tested on: SW-620 colon
RPMI-8226 leukemia = tested on: RPMI-8226 leukemia
HT29 colon = tested on: HT29 colon
LOX IMVI melanoma = tested on: LOX IMVI melanoma
CCRF-CEM leukemia = tested on: CCRF-CEM leukemia
M14 melanoma = tested on: M14 melanoma
UACC-257 melanoma = tested on: UACC-257 melanoma
KM12 colon = tested on: KM12 colon
NCI-H226 lung = tested on: NCI-H226 lung
DU-145 prostate = tested on: DU-145 prostate
SK-MEL-5 melanoma = tested on: SK-MEL-5 melanoma
BT-549 breast = tested on: BT-549 breast
SNB-75 CNS = tested on: SNB-75 CNS
OVCAR-8 ovarian = tested on: OVCAR-8 ovarian
786-0 renal = tested on: 786-0 renal
A498 renal = tested on: A498 renal
HOP-62 NSCLC = tested on: HOP-62 NSCLC
HCT-15 colon = tested on: HCT-15 colon
ACHN renal = tested on: ACHN renal
NCI-H522 lung = tested on: NCI-H522 lung
SK-OV-3 ovarian = tested on: SK-OV-3 ovarian
U251 CNS = tested on: U251 CNS
MCF7 breast = tested on: MCF7 breast
SR leukemia = tested on: SR leukemia
SF-539 CNS = tested on: SF-539 CNS
NCI/ADR-RES ovarian = tested on: NCI/ADR-RES ovarian
COLO 205 colon = tested on: COLO 205 colon
IGROV1 ovarian = tested on: IGROV1 ovarian
NCI-H460 lung = tested on: NCI-H460 lung
MDA-MB-435 = tested on: MDA-MB-435
T-47D breast = tested on: T-47D breast
PC-3 prostate = tested on: PC-3 prostate
HCC-2998 colon = tested on: HCC-2998 colon
CAKI-1 renal = tested on: CAKI-1 renal
RXF 393 renal = tested on: RXF 393 renal

`Cn1cc(C2=C(c3cn(CCCCCO)c4ccccc34)C(=O)NC2=O)c2ccccc21` gave a GI50 (SK-MEL-28 melanoma) of 4.92 µM, a TGI (SK-MEL-28 melanoma) of 15.7 µM and a GI50 (HS 578T breast) of 3.74 µM. It also gave a TGI (HS 578T breast) of 17.5 µM, a GI50 (SK-MEL-2 melanoma) of 2.83 µM and a TGI (SK-MEL-2 melanoma) of 8.15 µM. For the same molecule, the GI50 (OVCAR-3 ovarian) was 5.48 µM, the TGI (OVCAR-3 ovarian) was 17.3 µM and the GI50 (MOLT-4 leukemia) was 4.71 µM. It also gave a TGI (MOLT-4 leukemia) of 16.6 µM, a GI50 (SF-268 CNS) of 6.34 µM and a TGI (SF-268 CNS) of 19.1 µM. It also gave a GI50 (K-562 leukemia) of 2.16 µM, a TGI (K-562 leukemia) of over 25 µM and a GI50 (HCT-116 colon) of 4.67 µM. It also gave a TGI (HCT-116 colon) of over 25 µM, a GI50 (OVCAR-4 ovarian) of 5.11 µM and a TGI (OVCAR-4 ovarian) of 17.5 µM. The GI50 (SN12C renal) was 5.55 µM, the TGI (SN12C renal) was 19.5 µM and the GI50 (SF-295 CNS) was 4.5 µM. The TGI (SF-295 CNS) was 13.9 µM, the GI50 (MALME-3M melanoma) was 6.9 µM and the TGI (MALME-3M melanoma) was 16.3 µM. It also gave a GI50 (UO-31 renal) of 4.11 µM, a TGI (UO-31 renal) of 12.9 µM and a GI50 (SNB-19 CNS) of 8.41 µM. The TGI (SNB-19 CNS) was over 23.2 µM, the GI50 (A549 NSCLC) was 6.19 µM and the TGI (A549 NSCLC) was 24 µM. The GI50 (OVCAR-5 ovarian) was 11.8 µM, the TGI (OVCAR-5 ovarian) was over 25 µM and the GI50 (TK-10 renal) was 6.11 µM. The TGI (TK-10 renal) was 16 µM, the GI50 (HL-60(TB) leukemia) was 4.08 µM and the TGI (HL-60(TB) leukemia) was 11.5 µM. For the same molecule, the GI50 (NCI-H23 lung) was 5.34 µM, the TGI (NCI-H23 lung) was 16.5 µM and the GI50 (UACC-62 melanoma) was 3.99 µM. For the same molecule, the TGI (UACC-62 melanoma) was 9.17 µM, the GI50 (MDA-MB-231 breast) was 8.93 µM and the TGI (MDA-MB-231 breast) was over 24 µM. It also gave a GI50 (SW-620 colon) of 3.17 µM, a TGI (SW-620 colon) of over 25 µM and a GI50 (RPMI-8226 leukemia) of 6.6 µM. It also gave a TGI (RPMI-8226 leukemia) of 18.4 µM, a GI50 (HT29 colon) of 3.31 µM and a TGI (HT29 colon) of 13.9 µM. It also gave a GI50 (LOX IMVI melanoma) of 4.99 µM, a TGI (LOX IMVI melanoma) of over 19.4 µM and a GI50 (CCRF-CEM leukemia) of 3.01 µM. It also gave a TGI (CCRF-CEM leukemia) of over 16.6 µM, a GI50 (M14 melanoma) of 5.38 µM and a TGI (M14 melanoma) of over 25 µM. It also gave a GI50 (UACC-257 melanoma) of 9.48 µM, a TGI (UACC-257 melanoma) of over 25 µM and a GI50 (KM12 colon) of 4.22 µM. For the same molecule, the TGI (KM12 colon) was 16.1 µM, the GI50 (NCI-H226 lung) was 5.03 µM and the TGI (NCI-H226 lung) was 15.8 µM. For the same molecule, the GI50 (DU-145 prostate) was 8.83 µM, the TGI (DU-145 prostate) was over 25 µM and the GI50 (SK-MEL-5 melanoma) was 3.29 µM. For the same molecule, the TGI (SK-MEL-5 melanoma) was 6.82 µM, the GI50 (BT-549 breast) was 4 µM and the TGI (BT-549 breast) was 10.9 µM. The GI50 (SNB-75 CNS) was 1.21 µM, the TGI (SNB-75 CNS) was 8.9 µM and the GI50 (OVCAR-8 ovarian) was 6.3 µM. It also gave a TGI (OVCAR-8 ovarian) of over 20.2 µM, a GI50 (786-0 renal) of 5.81 µM and a TGI (786-0 renal) of over 21.5 µM. For the same molecule, the GI50 (A498 renal) was 4.18 µM, the TGI (A498 renal) was 14.3 µM and the GI50 (HOP-62 NSCLC) was 5.92 µM. It also gave a TGI (HOP-62 NSCLC) of 15.6 µM, a GI50 (HCT-15 colon) of 2.57 µM and a TGI (HCT-15 colon) of over 25 µM. For the same molecule, the GI50 (ACHN renal) was 6.82 µM, the TGI (ACHN renal) was 24.8 µM and the GI50 (NCI-H522 lung) was 2.27 µM. For the same molecule, the TGI (NCI-H522 lung) was 10.6 µM, the GI50 (SK-OV-3 ovarian) was 4.92 µM and the TGI (SK-OV-3 ovarian) was 17.8 µM. The GI50 (U251 CNS) was 5.98 µM, the TGI (U251 CNS) was over 17.3 µM and the GI50 (MCF7 breast) was 3.56 µM. The TGI (MCF7 breast) was over 22.5 µM, the GI50 (SR leukemia) was 1.57 µM and the TGI (SR leukemia) was 11 µM. It also gave a GI50 (SF-539 CNS) of 3.16 µM, a TGI (SF-539 CNS) of 8.55 µM and a GI50 (NCI/ADR-RES ovarian) of 7.04 µM. The TGI (NCI/ADR-RES ovarian) was over 22.5 µM, the GI50 (COLO 205 colon) was 3.89 µM and the TGI (COLO 205 colon) was 11.4 µM. The GI50 (IGROV1 ovarian) was 8.04 µM, the TGI (IGROV1 ovarian) was 17.9 µM and the GI50 (NCI-H460 lung) was 6.01 µM. The TGI (NCI-H460 lung) was 14.8 µM, the GI50 (MDA-MB-435) was 0.815 µM and the TGI (MDA-MB-435) was 4.4 µM. For the same molecule, the GI50 (T-47D breast) was 6.44 µM, the TGI (T-47D breast) was 16 µM and the GI50 (PC-3 prostate) was 6.88 µM. It also gave a TGI (PC-3 prostate) of over 24.1 µM, a GI50 (HCC-2998 colon) of 7.47 µM and a TGI (HCC-2998 colon) of over 20.6 µM. The GI50 (CAKI-1 renal) was 6.34 µM, the TGI (CAKI-1 renal) was over 23.3 µM and the GI50 (RXF 393 renal) was 3.51 µM. It also gave a TGI (RXF 393 renal) of 9.61 µM.
